Measured values from US6051718A, “PDE IV inhibiting 2-cyanoiminoimidazole derivatives” (Janssen Pharmaceutica, N.V., priority 1996, dated 2000).

What follows are molecules tested against T1, recombinant human MNL phosphodiesterase PDE IV B (Homo sapiens, UniProt Q07343) (assay: Inhibition of recombinant human mononuclear lymphocyte (MNL) phosphodiesterase type IV B produced in insect cells with a baculovirus vector). Settings: 3H-cAMP 0.8 μM, 10 minutes, 37° C., pH 8, DMSO 1%.
T1 construct: made in house
Type: biochemical
Protocol: Example C.1: Inhibition of Recombinant Human Mononuclear Lymphocyte (MNL) Phosphodiesterase Type IV B Produced in Insect Cells with a Baculovirus Vector
The alleviating and/or curing effect of the instant compounds on allergic and atopic diseases was assessed by an in vitro assay system to detect an inhibiting effect on the recombinant human MNL phosphodiesterase type IV B.
Seventy-two hours after infection with recombinant baculovirus, the insect cells were harvested and pelleted at 500 g for 5 minutes. The cells were lysed in 10 ml lysis-buffer consisting of 20 mM Tris, 10 mM EGTA, 2 mM Na2 EDTA, 1% Triton-X-100, 1 mM Na3 VO4, 10 mM NaF, 2 μg/ml of leupeptine, pepstatine and aprotinine, 0.3 μg/ml benzamidine and 100 μg/ml TPCK pH 7.5. After 5 minutes on ice, solubilized cells were centrifuged at 4000 rpm for 15 minutes at 4° C. The resulting supernatant was filtered through a 0.45 μm filter (Millipore) and brought to TBS buffer (50 mM Tris, 150 mM NaCl pH 7.4).
After washing the column with equilibration buffer, PDE IV was eluted in 1.5 ml fractions containing 37.5 μl 1M Tris pH 8. The fractions were dialyzed overnight against 20 mM Tris, 2 mM Na2 EDTA and 400 mM NaCl pH 7.5 and tested for PDE IV activity. Indentification was done on SDS PAGE and Western Blot (anti-FLAG-M2). Active fractions were pooled, brought to 10% glycerol and stored at -70° C.
The incubation mixture (pH 8) (200 μl) contained 20 mM Tris, 10 mM magnesium sulphate, 0.8 μM ^3 H-cAMP (310 mCi/mmole) and the phosphodiesterase type IV, the amount depending on the enzymatic activity. […] When the effect of different compounds on phosphodiesterase activity was tested, the medium without cAMP was incubated with the compound(s) or its carrier (DMSO-1% final concentration) for 5 minutes. […] After cooling to room temperature, alkaline phosphatase (0.25 μg/ml) was added and the mixture was incubated at 37° C. for 20 min. 100 μl of the mixture was subsequently applied to a GF-B filter-microtiter-plate (Millipore) filled with 300 μl DEAE-Sephadex-A25 suspension. The plate was washed 3 times with 75 μl 20 mM Tris pH 7.5 and the filtrates were collected for counting in the Packard Top Count scintillation counter.
The inhibiting effect of the present compounds on recombinant human MNL phosphodiesterase PDE IV B was measured at different concentrations of the instant compounds.

T1 sequence (Q07343 whole entry): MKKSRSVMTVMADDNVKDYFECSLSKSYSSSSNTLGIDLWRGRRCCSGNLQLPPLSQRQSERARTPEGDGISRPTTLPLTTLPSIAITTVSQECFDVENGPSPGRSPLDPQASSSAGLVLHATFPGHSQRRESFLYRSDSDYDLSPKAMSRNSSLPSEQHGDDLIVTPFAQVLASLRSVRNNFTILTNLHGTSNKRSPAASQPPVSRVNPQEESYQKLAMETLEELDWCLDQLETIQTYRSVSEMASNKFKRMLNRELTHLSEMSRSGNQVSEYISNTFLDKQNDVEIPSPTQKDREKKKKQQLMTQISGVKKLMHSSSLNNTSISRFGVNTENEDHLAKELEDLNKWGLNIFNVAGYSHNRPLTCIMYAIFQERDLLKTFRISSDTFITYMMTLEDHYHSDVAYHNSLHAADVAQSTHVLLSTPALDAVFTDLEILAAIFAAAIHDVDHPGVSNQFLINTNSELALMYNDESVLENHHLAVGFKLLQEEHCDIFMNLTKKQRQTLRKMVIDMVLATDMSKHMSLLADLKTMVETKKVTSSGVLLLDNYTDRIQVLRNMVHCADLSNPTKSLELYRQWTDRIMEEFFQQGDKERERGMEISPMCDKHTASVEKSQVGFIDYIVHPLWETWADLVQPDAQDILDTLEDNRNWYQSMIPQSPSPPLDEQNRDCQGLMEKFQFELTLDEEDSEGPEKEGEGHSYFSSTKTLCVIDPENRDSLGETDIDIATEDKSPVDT

Row | Structure (SMILES) | IC50
1 | COc1ccc(C(C)CN2CCNC2=NC#N)cc1OC1CCCC1 (racemic) [Compound 1, (±)-[1-[2-[3-(cyclopentyloxy)-4-methoxyphenyl]propyl]-2-imidazolidinylidene] cyanamide] | 330 nM
2 | CC(Cn1cc[nH]c1=NC#N)c1ccc(OC(F)F)c(OC2CCOC2)c1 (racemic) [Compound 2, (±)-[1-[2-[4-(difluoromethoxy)-3-[(tetrahydro-3-furanyl)oxy]phenyl]-propyl]-1,3-dihydro-2H-imidazol-2-ylidene]cyanamide] | 100 nM
3 | COc1ccc(C(C)Cn2ccnc2NC#N)cc1OC1CCCC1 (single isomer, unassigned) [Compound 12] | 21.9 nM
4 | COc1ccc(C(C)Cn2ccnc2NC#N)cc1OC1CCCC1 (single isomer, unassigned) [Compound 13] | 22.2 nM
5 | COc1ccc(C(C)Cn2ccnc2NC#N)cc1OCC1CC1 (single isomer, unassigned) [Compound 14] | 27.2 nM
6 | COc1ccc(C(C)Cn2ccnc2NC#N)cc1OCCCCCc1ccccc1 (single isomer, unassigned) [Compound 18] | 40.9 nM
7 | COc1ccc(C(C)Cn2ccnc2NC#N)cc1OCCCCCc1ccccc1 (single isomer, unassigned) [Compound 19] | 37.5 nM
8 | CC(Cn1cc[nH]c1=NC#N)c1ccc(OC(F)F)c(OC2CCCC2)c1 (centres unmarked) [Compound 4] | 15.3 nM
9 | N#CN=c1[nH]ccn1CCc1ccc(OC(F)F)c(OC2CCCC2)c1 [Compound 5] | 26.6 nM
10 | COc1ccc(C(C)Cn2cc[nH]c2=NC#N)cc1OCCCCCc1ccccc1 (centres unmarked) [Compound 9] | 36.1 nM
11 | CC(Cn1ccnc1NC#N)c1ccc(OC(F)F)c(OCCCCCc2ccccc2)c1 (centres unmarked) [Compound 11] | 32.7 nM
12 | COc1ccc(CCn2cc[nH]c2=NC#N)cc1OC1Cc2ccccc2C1 [Compound 20] | 76.5 nM

Other lines, results leading:

Row | IC50 | Structure (SMILES)
13 | 33.5 nM | COc1ccc(C(C)Cn2ccnc2NC#N)cc1OCC1CC1 (single isomer, unassigned) [Compound 15]
14 | 30 nM | COc1ccc(C(C)Cn2cc[nH]c2=NC#N)cc1OC1CCCC1 (centres unmarked) [Compound 3]
15 | 22.4 nM | CC(Cn1cc[nH]c1=NC#N)c1ccc(OC(F)F)c(OCC2CC2)c1 (centres unmarked) [Compound 6]
16 | 56.5 nM | COc1ccc(C(C)Cn2cc[nH]c2=NC#N)cc1OCC1CC1 (centres unmarked) [Compound 8]
17 | 196 nM | COc1ccc(C(C)Cn2cc[nH]c2=NC#N)cc1OC1CCOC1 (centres unmarked) [Compound 10]
